Article PMC5786788, “Antimicrobial Octapeptin C4 Analogues Active against Cryptococcus Species” (Antimicrobial Agents and Chemotherapy, 2018)
Where two headings read alike, the source gives them in different places. Where a SMILES comes first, the peptide text is derived from it. Bridges are numbered along the chain shown (N, C = ends). [ ]: non-standard residue; d: D form. The star is where a group is joined. Decanoyl(3R-OH) = CCCCCCC[C@@H](O)CC(=O)*; dDab = NCC[C@@H](N)C(=O)O; Dab = NCC[C@H](N)C(=O)O

What was measured:
[1] = tested on: C. neoformans H99 (cap59Δ); type: cell-based, Cryptococcus neoformans; conditions: Table 2; triplicate, values consistent across replicates
Source text: The different susceptibility of C. neoformans and C. gattii to PMB compared to other pathogenic fungi such as C. albicans and A. fumigatus has been postulated to arise from differences in cell surface composition ([38]). One key difference is the presence of a negatively charged polysaccharide capsule in Cryptococcus spp. proposed to concentrate the cationic lipopeptides at the cell surface ([38]). To examine this potential interaction for the octapeptin series, a C. neoformans cap59Δ mutant strain deficient in the secretion of negatively charged glucuronoxylomannan (an α1–3-linked mannan containing β1,2 and β1,4 xylosyl substitutions, as well as β1,2-linked glucuronyl residues) ([41], [42]), was tested against octapeptin C4 in comparison to PMB.
(§1) Fungal strains were stored in 15% glycerol at −80°C until use. The fungal strains used were H99 (C. neoformans type strain) ([55]), cap59Δ (an acapsular H99 mutant) ([56]), ATCC 90113 (C. neoformans), MMRL 2651 (C. gattii), ATCC 90028 (Candida albicans), ATCC 90030 (Candida glabrata), ATCC 22019 (Candida parapsilosis), and ATCC MYA 3626 (Aspergillus fumigatus). Yeasts were cultured in liquid (1% yeast extract, 2% Bacto peptone, 2% glucose) or solid (additional 2% agar) yeast extract-peptone-dextrose (YPD) media at 30°C and maintained at 4°C for no longer than 2 weeks. A. fumigatus was prepared on potato dextrose medium at 30°C and maintained at 4°C for no longer than 2 weeks.
(§2) The MICs of the yeast strains for PMB, PME, and octapeptin C4 and its derivatives were determined in accordance with CLSI M27-A2 guidelines using YNB (Becton Dickinson, USA) medium supplemented with 10 mM ammonium sulfate and 2% glucose, a final inoculum concentration of 1.5 × 10^3 to 2.0 × 10^3 cells/ml, and incubation at 35°C for 72 h ([39]). […] The MICs for PMB, PME, and octapeptin C4 for A. fumigatus were determined in accordance with the CLSI M38-A2 guidelines ([40]) using synthetic RPMI 1640 medium (with glutamine, without bicarbonate and with phenol red; Life Technologies, USA). The final inoculum concentration was 0.4 × 10^4 to 5 × 10^4 cells/ml, with incubation at 35°C for 48 h. […] All assays were completed in triplicate. Fluconazole was used as a positive control where the MIC was determined at both 50% growth (in accordance with CLSI M27-A2 guidelines) and when there was a “no visible growth” reading.

C. gattii MMRL 2651 = tested on: C. gattii MMRL 2651
Experimental: (§3) A broth microdilution assay was initially used to characterize the antifungal activity of the cyclic lipopeptides ([39], [40]). […] common pathogenic yeasts (C. albicans, C. glabrata, C. parapsilosis, C. neoformans, and C. gattii) and one pathogenic mold (A. fumigatus) were tested to determine the MIC for each compound (Table 1) using broth microdilution. […] The only structural difference between these molecules is the presence of a phenylalanine residue at position 6 in PMB; in PME a D-leucine is present at this location (Fig. 1).
as §1, §2

C. neoformans ATCC 90113 = conditions: ATCC 90113, 72 h
Experimental: as §3, §1, §2

C. neoformans H99 = conditions: H99, 72 h
Experimental: as §3, §1, §2

## CCCCCCC[C@@H](O)CC(=O)N[C@H](CCN)C(=O)N[C@H]1CCNC(=O)[C@H](CC(C)C)NC(=O)[C@H](CCN)NC(=O)[C@H](CCN)NC(=O)[C@H](CC(C)C)NC(=O)[C@@H](Cc2ccccc2)NC(=O)[C@H](C)NC1=O [Compound P3] ({Decanoyl(3R-OH)}-[dDab][Dab]A[dF]L[Dab][Dab]L; lactam 2-C)
[1]
  MICs against various Cryptococcus strains: H99 (cap59Δ): 12.5 µg/mL
C. gattii MMRL 2651; Table 2, C. gattii, triplicate, values consistent across replicates
  MICs against various Cryptococcus strains: MMRL 2651: 12.5 µg/mL
C. neoformans ATCC 90113
  MICs against various Cryptococcus strains: ATCC 90113: 6.25 µg/mL
C. neoformans H99
  MICs against various Cryptococcus strains: H99: 6.25 µg/mL

## CCCCCCC[C@@H](O)CC(=O)N[C@H](CCN)C(=O)N[C@H]1CCNC(=O)[C@H](CC(C)C)NC(=O)[C@H](CCN)NC(=O)[C@H](CCN)NC(=O)[C@H](CC(C)C)NC(=O)[C@@H](C)NC(=O)[C@H](CCN)NC1=O [Compound P4D] ({Decanoyl(3R-OH)}-[dDab][Dab][Dab][dA]L[Dab][Dab]L; lactam 2-C)
[1]
  MICs against various Cryptococcus strains: H99 (cap59Δ): 50.0 µg/mL
C. gattii MMRL 2651; 72 h
  MICs against various Cryptococcus strains: MMRL 2651: 25.0 µg/mL
C. neoformans ATCC 90113
  MICs against various Cryptococcus strains: ATCC 90113: 12.5 µg/mL
C. neoformans H99
  MICs against various Cryptococcus strains: H99: 12.5 µg/mL

## CCCCCCC[C@@H](O)CC(=O)N[C@H](CCN)C(=O)N[C@H]1CCNC(=O)[C@H](CC(C)C)NC(=O)[C@H](CCN)NC(=O)[C@H](CCN)NC(=O)[C@H](CC(C)C)NC(=O)[C@H](C)NC(=O)[C@H](CCN)NC1=O [Compound P4L] ({Decanoyl(3R-OH)}-[dDab][Dab][Dab]AL[Dab][Dab]L; lactam 2-C)
[1]
  MICs against various Cryptococcus strains: H99 (cap59Δ): 100.0 µg/mL
C. gattii MMRL 2651; 72 h
  MICs against various Cryptococcus strains: MMRL 2651: 100 µg/mL
C. neoformans ATCC 90113
  MICs against various Cryptococcus strains: ATCC 90113: 25.0 µg/mL
C. neoformans H99
  MICs against various Cryptococcus strains: H99: 50.0 µg/mL

## CCCCCCC[C@@H](O)CC(=O)N[C@H](CCN)C(=O)N[C@H]1CCNC(=O)[C@H](CC(C)C)NC(=O)[C@H](CCN)NC(=O)[C@H](CCN)NC(=O)[C@H](C)NC(=O)[C@@H](Cc2ccccc2)NC(=O)[C@H](CCN)NC1=O [Compound P5] ({Decanoyl(3R-OH)}-[dDab][Dab][Dab][dF]A[Dab][Dab]L; lactam 2-C)
[1]
  MICs against various Cryptococcus strains: H99 (cap59Δ): 50.0 µg/mL
C. gattii MMRL 2651; 72 h
  MICs against various Cryptococcus strains: MMRL 2651: 25.0 µg/mL
C. neoformans ATCC 90113
  MICs against various Cryptococcus strains: ATCC 90113: 12.5 µg/mL
C. neoformans H99
  MICs against various Cryptococcus strains: H99: 12.5 µg/mL
